DBAASP
≈ marks a conversion by molar mass, not a printed value. Blank lines part the entries; values can stand above or below the molecule they belong to.

Legend:
Assay in all cases: ≥ marks a high value that may be exact or a test limit, other limits are often not marked, values filed in µg/mL are converted to µM
[1] = system: Yersinia pseudotuberculosis YPIII
[2] = system: Staphylococcus capitis 1
[3] = system: Candida albicans ATCC 10231
[4] = system: Escherichia coli ATCC 25922
[5] = system: Bacillus megaterium Bm11
[6] = system: Staphylococcus aureus Cowan 1
[7] = system: Botrytis cinerea
[8] = system: Staphylococcus aureus ATCC 12600
[9] = system: Escherichia coli ATCC 11775
[10] = system: Pseudomonas aeruginosa PAO1
[11] = system: Pseudomonas aeruginosa 919
[12] = system: Pseudomonas aeruginosa 253
[13] = system: Pseudomonas aeruginosa 910
[14] = system: Bacillus subtilis ATCC 6633
[15] = system: Candida albicans ATCC 20032
[16] = system: Staphylococcus aureus ATCC 25923
[17] = system: Escherichia coli JM109
[18] = system: Staphylococcus aureus
[19] = system: Staphylococcus aureus ATCC 6538P
[20] = system: Streptococcus mutans
[21] = system: Streptococcus gordonii Challis DL1
[22] = system: Streptococcus mitis ATCC 903
[23] = system: Lacticaseibacillus casei ATCC 4646
[24] = system: Veillonella atypica PK1910
[25] = system: Streptococcus sanguinis NY101

MIC [1]: ≥ 40 µM
MIC [2]: 20 µM (≈ 27.1 µg/mL)
MIC [3]: 10 µM (≈ 13.5 µg/mL)
MIC [4]: > 40 µM
MIC [5]: 5 µM (≈ 6.77 µg/mL)
MIC [6]: 20 µM (≈ 27.1 µg/mL)
Structure (SMILES): CC[C@H](C)[C@H](NC(=O)CNC(=O)[C@H](CO)NC(=O)[C@H](CC(C)C)NC(=O)[C@@H](NC(=O)[C@H](CCCN=C(N)N)NC(=O)CNC(=O)[C@@H](NC(=O)[C@H](CC(C)C)NC(=O)[C@@H]1CCCN1C(=O)[C@H](C)NC(=O)[C@@H](N)Cc1ccccc1)[C@@H](C)CC)C(C)C)C(=O)N[C@@H](CC(C)C)C(N)=O [FAPLIGRVLSGIL]

MIC [7]: 5 µM (≈ 8.14 µg/mL)
MIC [8]: ≥ 50 µM
MIC [3]: > 200 µM
MIC [9]: ≥ 200 µM
Structure (SMILES): CC[C@H](C)[C@H](NC(=O)CNC(=O)[C@H](CO)NC(=O)[C@H](CC(C)C)NC(=O)[C@H](CC(C)C)NC(=O)CNC(=O)[C@@H](NC(=O)[C@@H](NC(=O)[C@@H]1CCCN1C(=O)CNC(=O)[C@@H](N)Cc1ccccc1)C(C)C)[C@@H](C)CC)C(=O)N[C@@H](CC(C)C)C(=O)N[C@@H](CCCCN)C(=O)N[C@@H](CO)C(=O)N[C@@H](CC(C)C)C(=O)N[C@@H](CC(C)C)C(=O)O [FGPVIGLLSGILKSLL]

MIC [10]: 4 µM (≈ 7.28 µg/mL)
MIC [11]: 22.6 µM (≈ 41.2 µg/mL)
MIC [12]: 16 µM (≈ 29.1 µg/mL)
MIC [13]: 8 µM (≈ 14.6 µg/mL)
Structure (SMILES): CC[C@H](C)[C@H](NC(=O)[C@@H](N)Cc1ccccc1)C(=O)N[C@@H](CCCCN)C(=O)N[C@@H](Cc1c[nH]c2ccccc12)C(=O)N[C@@H](CCCCN)C(=O)N[C@@H](Cc1ccccc1)C(=O)N[C@@H](CCCN=C(N)N)C(=O)N1CCC[C@H]1C(=O)N[C@@H](Cc1c[nH]c2ccccc12)C(=O)N[C@@H](CCCCN)C(=O)N[C@@H](CCCCN)C(=O)N[C@@H](CCCN=C(N)N)C(=O)N[C@H](C(N)=O)[C@@H](C)O [FIKWKFRPWKKRT]

MIC [1]: 20 µM (≈ 28.2 µg/mL)
MIC [2]: 5 µM (≈ 7.05 µg/mL)
MIC [3]: 2.5 µM (≈ 3.53 µg/mL)
MIC [4]: > 40 µM
MIC [5]: 2.5 µM (≈ 3.53 µg/mL)
MIC [6]: 2.5 µM (≈ 3.53 µg/mL)
Structure (SMILES): CC[C@H](C)[C@H](NC(=O)[C@H](C)NC(=O)[C@H](CO)NC(=O)[C@H](CC(C)C)NC(=O)[C@@H](NC(=O)[C@H](CCCN=C(N)N)NC(=O)CNC(=O)[C@@H](NC(=O)[C@H](CC(C)C)NC(=O)[C@@H]1CCCN1C(=O)[C@H](CC(C)C)NC(=O)[C@@H](N)Cc1ccccc1)[C@@H](C)CC)C(C)C)C(=O)N[C@@H](CC(C)C)C(N)=O [FLPLIGRVLSAIL]

MIC [14]: 28 µM (≈ 75 µg/mL)
MIC [15]: ≥ 37.3 µM
MIC [16]: 1.75 µM (≈ 4.7 µg/mL)
MIC [4]: 3.51 µM (≈ 9.4 µg/mL)
Structure (SMILES): CC[C@H](C)[C@H](NC(=O)CN)C(=O)NCC(=O)NCC(=O)N[C@@H](CCCCN)C(=O)N[C@H](C(=O)N[C@@H](CC(C)C)C(=O)NCC(=O)NCC(=O)N[C@@H](CC(C)C)C(=O)N[C@@H](CCCN=C(N)N)C(=O)N[C@H](C(=O)N[C@@H](C)C(=O)N[C@@H](CC(C)C)C(=O)N[C@@H](CCCCN)C(=O)NCC(=O)N[C@@H](C)C(=O)N[C@@H](C)C(=O)N[C@@H](CCCCN)C(=O)N[C@@H](CCC(=O)O)C(=O)N[C@@H](CC(C)C)C(=O)N[C@@H](C)C(=O)N[C@@H](C)C(=O)N[C@H](C(=O)N[C@@H](Cc1ccc(O)cc1)C(=O)N[C@@H](CC(C)C)C(=O)N[C@@H](Cc1cnc[nH]1)C(N)=O)[C@@H](C)O)[C@@H](C)O)[C@@H](C)CC [GIGGKILGGLRTALKGAAKELAATYLH]

MIC [17]: 1 µM (≈ 1.86 µg/mL)
Structure (SMILES): CC[C@H](C)[C@H](N)C(=O)N[C@@H](CC(C)C)C(=O)N1CCC[C@H]1C(=O)N[C@@H](Cc1c[nH]c2ccccc12)C(=O)N[C@@H](CCCCN)C(=O)N[C@@H](Cc1c[nH]c2ccccc12)C(=O)N[C@@H](CCCCN)C(=O)N[C@@H](Cc1ccccc1)C(=O)N[C@@H](Cc1ccccc1)C(=O)N1CCC[C@H]1C(=O)N[C@@H](Cc1c[nH]c2ccccc12)C(=O)N[C@@H](CCCN=C(N)N)C(=O)N[C@@H](CCCN=C(N)N)C(N)=O [ILPWKWKFFPWRR]

MIC [18]: > 49.9 µM
MIC [17]: ≥ 37.4 µM
MIC [19]: 14 µM
Structure (SMILES): CC[C@H](C)[C@H](NC(=O)[C@H](C)NC(=O)[C@H](CC(C)C)NC(=O)[C@H](CS)NC(=O)[C@H](Cc1cnc[nH]1)NC(=O)[C@H](C)NC(=O)[C@H](C)NC(=O)[C@H](CS)NC(=O)[C@@H](N)CC(C)C)C(=O)NCC(=O)N[C@@H](CCCN=C(N)N)C(=O)N[C@@H](CCCN=C(N)N)C(N)=O [LCAAHCLAIGRR]

MIC [20]: 1.87 µM (≈ 5.66 µg/mL)
MIC [21]: 5.3 µM (≈ 16 µg/mL)
MIC [22]: 21.2 µM (≈ 64 µg/mL)
MIC [23]: 2.65 µM (≈ 8 µg/mL)
MIC [24]: 2.65 µM (≈ 8 µg/mL)
MIC [25]: 2.65 µM (≈ 8 µg/mL)
Structure (SMILES): NCCCC[C@H](NC(=O)[C@H](Cc1ccccc1)NC(=O)CNC(=O)CNC(=O)CNC(=O)[C@H](Cc1ccccc1)NC(=O)[C@H](Cc1c[nH]c2ccccc12)NC(=O)[C@H](CCCN=C(N)N)NC(=O)[C@H](Cc1c[nH]c2ccccc12)NC(=O)[C@H](CCCN=C(N)N)NC(=O)[C@H](Cc1c[nH]c2ccccc12)NC(=O)[C@@H](N)CCCN=C(N)N)C(=O)N[C@@H](CCCCN)C(=O)N[C@@H](Cc1ccccc1)C(=O)N[C@@H](Cc1c[nH]c2ccccc12)C(=O)N[C@@H](CCCCN)C(=O)N[C@@H](Cc1c[nH]c2ccccc12)C(=O)N[C@@H](Cc1ccccc1)C(=O)N[C@@H](CCCN=C(N)N)C(=O)N[C@@H](CCCN=C(N)N)C(=O)N[C@@H](Cc1ccccc1)C(N)=O [RWRWRWFGGGFKKFWKWFRRF]

MIC [20]: 2.74 µM (≈ 8 µg/mL)
MIC [21]: 11 µM (≈ 32 µg/mL)
MIC [22]: 22 µM (≈ 64 µg/mL)
MIC [23]: 2.74 µM (≈ 8 µg/mL)
MIC [24]: 5.49 µM (≈ 16 µg/mL)
MIC [25]: 5.49 µM (≈ 16 µg/mL)
Structure (SMILES): CC(C)C[C@H](NC(=O)CNC(=O)CNC(=O)CNC(=O)[C@H](Cc1ccccc1)NC(=O)[C@H](Cc1c[nH]c2ccccc12)NC(=O)[C@H](CCCN=C(N)N)NC(=O)[C@H](Cc1c[nH]c2ccccc12)NC(=O)[C@H](CCCN=C(N)N)NC(=O)[C@H](Cc1c[nH]c2ccccc12)NC(=O)[C@@H](N)CCCN=C(N)N)C(=O)N[C@@H](CCCCN)C(=O)N[C@@H](CCCN=C(N)N)C(=O)N[C@@H](Cc1ccccc1)C(=O)N[C@@H](CC(C)C)C(=O)N[C@@H](CCCCN)C(=O)N[C@@H](Cc1c[nH]c2ccccc12)C(=O)N[C@@H](Cc1ccccc1)C(=O)N[C@@H](CCCCN)C(=O)N[C@@H](CCCN=C(N)N)C(=O)N[C@@H](Cc1ccccc1)C(N)=O [RWRWRWFGGGLKRFLKWFKRF]

MIC [10]: 2 µM (≈ 2.89 µg/mL)
MIC [11]: 2.83 µM (≈ 4.08 µg/mL)
MIC [12]: 8 µM (≈ 11.6 µg/mL)
MIC [13]: 8 µM (≈ 11.6 µg/mL)
Structure (SMILES): CC[C@H](C)[C@H](NC(=O)[C@H](CCCCN)NC(=O)[C@H](CCCN=C(N)N)NC(=O)[C@H](Cc1c[nH]c2ccccc12)NC(=O)[C@H](Cc1c[nH]c2ccccc12)NC(=O)[C@@H](N)CCCN=C(N)N)C(=O)N[C@@H](Cc1c[nH]c2ccccc12)C(=O)N[C@@H](CCCCN)C(=O)N[C@@H](Cc1c[nH]c2ccccc12)C(N)=O [RWWRKIWKW]
